Patent US9782360B2, “Fluorinated CBD compounds, compositions and uses thereof” (YISSUM RESEARCH DEVELOPMENT COMPANY OF THE HEBREW …, priority 2013, dated 2017)
Several values for one entry are separate records, joined by “and”; a condition that tells them apart may be missing. Equal values may be shown once.

Legend:
Swiss mice [1] = details: Moreira and Guimarães, 2005; cited from earlier work
mice tested in the FST [2] = details: i.p., Swiss mice; doses tested 3, 10, 30 and 100 mg/kg; cited from earlier work
[3] = Campos & Guimarães, 2008; cited from earlier work
Swiss mice [4] = details: single administration i.p., MK801 0.3-1 mg/kg i.p., also tested 1 and 15 mg/kg; cited from earlier work
Swiss mice [5] = details: cited from earlier work
[6] = test system: rats submitted to the elevated plus maze; details: intra-dlPAG, same paradigm; doses tested: 15, 30 and 60 nmol; cited from earlier work
[7] = test system: mice tested in the elevated plus maze; assay: Elevated plus-maze (EPM) in mice, systemic (IP) administration; type: in vivo, Swiss mice
Method: (§1) Male Wistar rats (220-250 g) and Swiss mice (25-30 g) originated from the Central Animal Farm of the School of Medicine of Ribeirão Preto (FMRP-USP) were maintained in groups of five animals per box (41×33×17 cm) in a temperature controlled room (24±2° C.) with a 12×12 h light-dark cycle. They received water and food ad libitum throughout the study period.
(§2) HU-474 (1, 3 and 10 mg/kg) was administered intraperitoneally (IP) in mice at 10 mL/kg volume and HU-475 (1, 3 and 10 nmol) was injected intra-dlPAG in rats. Both drugs were dissolved in 2% Tween 80 in sterile saline.
The wood EPM used to perform the experiments was located in a sound attenuated and temperature controlled room (23° C.), with one incandescent light (40 W) placed 1.3 m away from the maze. The apparatus consists of two opposing open arms (50×10 cm) without side walls, perpendicular to two enclosed arms (50×10×40 cm), with a central platform common to all arms (10×10 cm). The apparatus is elevated 50 cm above the ground and has an acrylic edge (1 cm) in the open arms to prevent animal falls. In this model, rodents naturally avoid the open arms, exploring more extensively the enclosed arms. Anxiolytic drugs increase the exploration in open arms without affecting the number of enclosed arms entries, which is usually used to assess general exploratory activity (File, 1992). Ten minutes after the last injection the animal was placed on the central platform of the maze with the head facing one of the enclosed arms. The test lasted for 5 min and was recorded. The animal behavior was analyzed with the help of the Anymaze Software (version 4.5, Stoelting). This software indicates the location of the animal in the EPM and automatically calculates the percentage of entries (Peo) and time spent in the open arms (Pto) and the number of entries in the enclosed arms (EA). Animals were only considered to enter an open or enclosed arm when 90% of their bodies were inside the region. All experiments were performed in the morning period (8 to 12 a.m.).
Similar to 5.1 except that the each arm measured 30×5 cm.
(§3) Results from HU-475 and HU-474 tests in the elevated plus maze were analyzed by Kruskal-Wallis followed by Mann-Whitney tests. Data from animals tested in the FST were analyzed by one-way ANOVA followed by Duncan test.

C57BL/6J mice = assay: Pre-pulse inhibition (PPI) test, impairment induced by MK-801; type: in vivo
Method: The experiments were performed using male C57BL/6J mice weighting 25-30 g. The animals were maintained throughout the experimental period under standard laboratory conditions with free access to water and food will be used.
HU-474 (3 and 10 mg/kg) was dissolved in 2% Tween 80 in sterile saline (vehicle). MK-801 (a NMDA antagonist, 0.5 mg/kg, Sigma, USA) was dissolved in saline. Drugs were administered intraperitoneally (ip) at 10 mL/kg volume.
The animals (n=9-11/group) received i.p. administration of vehicle or HU-474 (3 and 10 mg/kg) followed, 30 minutes later, by saline or MK-801 (0.5 mg/kg), resulting in the following experimental groups: vehicle+saline, HU 10+saline, vehicle+MK-801, HU 3+MK-801, HU 10+MK-801. The animals were submitted to PPI test 20 minutes after the last drug injection.
The PPI was carried out in three consecutive steps. The first consisted of an acclimation period during which no stimulus was presented. In the second step, called habituation, only the stimulus that triggers the startle (pulse) was presented. The step that assessed the inhibition of startle response pulse consisted of 64 random presentations of the different stimuli: (i) pulse (white noise) 105 dB at 20 ms, (II) pre-pulse (pure tone frequency of 7 kHz) 80, 85 and 90 dB at 10 ms, (III) followed by pre-pulse 100 ms interval between them and (IV) zero (no stimulus). During this session the stimuli are presented at regular intervals of 30 s, 8 presentations of each stimulus. The percentage of the PPI was expressed as the percent inhibition of startle amplitude in response to multiple presentations of the pulse preceded by pre-pulse (PP), depending on the amplitude of the response only to the pulse (P), which was obtained in the following formula: % PPI=100−((PP/P)×100). […]
The percentage of PPI was analyzed by repeated measures MANOVA with the treatment as the independent factor and the prepulse intensity (80, 85 and 90 dB) as repeated measure.

mice tested in the FST [8] = assay: Forced swimming test (FST) in mice; type: in vivo, Swiss mice; details: for immobility time in the FST: IP
Method: as §1, §2
Animals were individually submitted for 6 min of forced swimming in glass cylinders (height 25 cm, diameter 17 cm) containing 10 cm of water. The mice were videotaped and the immobility time (characterized by slow movements necessary to avoid drowning) was measured during the last 4-min period. The water was changed after each trial to maintain the temperature at 23-25° C. and to prevent the influence of alarm substances (Zanelati et al., 2010).
as §3

[9] = test system: rats submitted to the elevated plus maze; assay: Elevated plus-maze (EPM), intra-dlPAG microinjection in rats; type: in vivo, Wistar rats
Method: as §1, §2
Rats were submitted to a stereotaxic surgery to unilaterally implant cannulae (9.0 mm, 0.6 mm OD) into the dlPAG (coordinates: lateral: −1.9 mm; depth: −4.3 mm; angle: 16° from lambda; Paxinos and Watson, 2005), fixed to the skull with acrylic cement (Campos & Guimarães, 2008). The surgeries were performed under anesthesia with tribromoethanol 2.5% (10.0 mL/kg, IP) and immediately after the animals received Veterinary Pentabiotic (0.2 mL, intramuscular) and analgesic (Banamine, 1.0 mL/kg, subcutaneous) to prevent infections and decrease post-surgical pain. After surgery, animals underwent a recovery period of 5-7 days before the behavioral tests.
Animals received unilateral microinjections of vehicle or HU-475 into the dlPAG before being submitted to the behavioral tests. To this aim, microneedles (10.0 mm, 0.3 mm OD), connected to a microsyringe (Hamilton, USA, […]) through a segment of polyethylene (P10) were inserted into the guide cannulae. Solutions were injected with the help of an infusion pump (KD Scientific, USA). A 0.2 μL solution volume was injected over 1 min. After the injections, the needles remained inserted in the cannulae for additional 30 seconds to prevent drug reflux (Campos & Guimarães, 2008).
The wood EPM used to perform the experiments was located in a sound attenuated and temperature controlled room (23° C.), with one incandescent light (40 W) placed 1.3 m away from the maze. The apparatus consists of two opposing open arms (50×10 cm) without side walls, perpendicular to two enclosed arms (50×10×40 cm), with a central platform common to all arms (10×10 cm). The apparatus is elevated 50 cm above the ground and has an acrylic edge (1 cm) in the open arms to prevent animal falls. In this model, rodents naturally avoid the open arms, exploring more extensively the enclosed arms. […] The test lasted for 5 min and was recorded. The animal behavior was analyzed with the help of the Anymaze Software (version 4.5, Stoelting). […]
as §3

C=C(C)[C@@H]1CCC(C)=C[C@H]1c1c(O)cc(CCCCC)cc1O [CBD, cannabidiol]
dose able to attenuate the hyper-locomotion induced by MK801 (Swiss mice [1]): 30 mg/kg | dose producing an antidepressant-like effect in the forced swimming test (mice tested in the FST [2]): 30 mg/kg | dose producing an anxiolytic-like effect in the Vogel punished licking test [3]: 30 nmol | effective dose (attenuation of PPI deficits caused by MK801) (Swiss mice [4]): 5 mg/kg | effective doses (hyperlocomotion induced by d-amphetamine) (Swiss mice [5]): 30 mg/kg and 60 mg/kg | effective dose (anxiolytic-like effect, EPM) [6]: 30 nmol

C=C(C)[C@@H]1CCC(C)=CC1c1c(O)cc(CCCCC)c(F)c1O (some centres unmarked) [HU-474, 4′-fluoro-cannabidiol]
number of enclosed arms entries ([7]; HU-474 1, 3 and 10 mg/kg IP): No effect | percentage of entries onto the open arms ([7]; HU-474 1, 3 and 10 mg/kg IP, FIG. 4): No effect | percentage of time spent in the open arms ([7]; HU-474 1, 3 and 10 mg/kg IP, X^2=8.13, DF=3, p<0.05, FIG. 3): increased | effective dose (anxiolytic-like effects, EPM) ([7]; systemic administration, bell-shaped dose-response curve): 3 mg/kg | MK-801 PPI disruption (effect of treatment) (C57BL/6J mice; HU-474 10 mg/kg i.p., MK-801 0.5 mg/kg, all prepulse intensities (80, 85, 90 dB), P<0.05, FIG. 6): attenuated | effective dose (attenuation of MK-801 PPI disruption) (C57BL/6J mice; i.p., C57BL/6J mice): 10 mg/kg | immobility time in the FST (mice tested in the FST [8]; dose of 3 m/kg, p=0.019, FIG. 5): decreased | immobility time in the FST (mice tested in the FST [8]; doses of 1 and 10 mg/kg): ineffective | potency relative to CBD (forced swimming test) (mice tested in the FST [8]; i.p., compared with CBD effective dose): 10 times

C=C(CF)[C@@H]1CCC(C)=CC1c1c(OC(C)=O)cc(CCCCC)cc1OC(C)=O (some centres unmarked) [HU-475, 10-fluoro-cannabidiol diacetate]
number of enclosed arm entries ([9]; HU-475 1, 3 and 10 nmol intra-dlPAG): No effect | percentage of time spent into the open arms ([9]; HU-475 1, 3 and 10 nmol intra-dlPAG, X^2=8.5, DF=4, p=0.075, FIG. 2): tended to do the same | percentage of entries onto the open arms ([9]; HU-475 1, 3 and 10 nmol intra-dlPAG, X^2=9.66, DF=4, p<0.05, FIG. 1): increased | potency relative to CBD (EPM, intra-dlPAG) ([9]; intra-dlPAG, compared with CBD effective dose): 10 times

C[C@]12N[C@H](Cc3ccccc31)c1ccccc12 [MK-801, reference compound]
effect on PPI (C57BL/6J mice; MK-801 0.5 mg/kg i.p., all prepulse intensities tested, P<0.05, Duncan post-test): significant PPI disruption
